In ChEMBL document CHEMBL5223113, “Several non-salt and solid thienopyridine derivatives as oral P2Y12 receptor inhibitors with good stability” (Bioorg Med Chem Lett, 2022):
One block for each compound: values may come before it.

Key:
[1] = Stability in human plasma assessed as compound remaining measured at 180 mins relative to control; format: ADME, cell-free; settings: read-out: Stability
[2] = Stability in human plasma assessed as compound remaining measured at 60 mins relative to control; format: ADME, cell-free; settings: read-out: Stability
[3] = Toxicity in rat assessed as bleeding time by measuring ratio of ED200 to ED50 ratio by tail cutting assay; settings: in vivo
Rattus norvegicus [4] = experiment: Inhibition of thrombosis in anteriovenous bypassed rat at 1 mg/kg relative to control; format: functional
[5] = Toxicity in beagle dog assessed as electrocardiogram at 100 to 300 mg/kg/day oral gavage observed for 14 days; format: organism-based, Canis lupus familiaris; settings: in vivo, 336 h, dose 100-300 mg/kg/day, time 14 day
[6] = Toxicity in beagle dog assessed as electrocardiogram at 2000 mg/kg oral gavage observed for 14 days; format: organism-based, Canis lupus familiaris; settings: in vivo, 336 h, time 14 day
Rattus norvegicus [7] = organism: Rattus norvegicus; experiment: Inhibition of thrombosis in anteriovenous bypassed rat; format: functional
[8] = Stability in human plasma assessed as compound remaining measured at 20 mins relative to control; format: ADME, cell-free; settings: read-out: Stability
[9] = Toxicity in beagle dog assessed as decrease in platelet aggregation at 100 mg/kg/day oral gavage observed for 14 days; format: organism-based, Canis lupus familiaris; settings: in vivo, 336 h, time 14 day
[10] = Toxicity in beagle dog assessed as increase in ALP at 100 mg/kg/day oral gavage observed for 14 days; format: organism-based, Canis lupus familiaris; settings: in vivo, 336 h, time 14 day
[11] = Stability in human plasma assessed as compound remaining measured at 90 mins relative to control; format: ADME, cell-free; settings: read-out: Stability
Rattus norvegicus [12] = experiment: Anti-platelet activity against ADP-induced platelet aggregation in rat assessed as inhibition of platelet aggregation at 3 mg/kg relative to control; format: functional
Rattus norvegicus [13] = experiment: Anti-platelet activity against ADP-induced platelet aggregation in rat assessed as inhibition of platelet aggregation at 0.75 mg/kg relative to control; format: functional
[14] = Stability in human plasma assessed as compound remaining measured at 360 mins relative to control; format: ADME, cell-free; settings: read-out: Stability
[15] = Stability in human plasma assessed as compound remaining measured at 5 mins relative to control; format: ADME, cell-free; settings: read-out: Stability
Rattus norvegicus [16] = experiment: Inhibition of thrombosis in anteriovenous bypassed rat at 3 mg/kg relative to control; format: functional
[17] = Toxicity in beagle dog assessed as swelling of hepatocyte at 100 mg/kg/day oral gavage observed for 14 days; format: organism-based, Canis lupus familiaris; settings: hepatocytes, 336 h, time 14 day
Rattus norvegicus [18] = experiment: Anti-platelet activity against ADP-induced platelet aggregation in rat assessed as inhibition of platelet aggregation at 1.5 mg/kg relative to control; format: functional
[19] = Stability in human plasma assessed as compound remaining measured at 240 mins relative to control; format: ADME, cell-free; settings: read-out: Stability
[20] = Stability in human plasma assessed as compound remaining measured at 10 mins relative to control; format: ADME, cell-free; settings: read-out: Stability
[21] = Toxicity in beagle dog assessed as vomiting at 100 to 300 mg/kg/day oral gavage observed for 14 days; format: organism-based, Canis lupus familiaris; settings: in vivo, 336 h, dose 100-300 mg/kg/day, time 14 day
[22] = Stability in human plasma assessed as compound remaining measured at 30 mins relative to control; format: ADME, cell-free; settings: read-out: Stability
[23] = Toxicity in beagle dog assessed as ALP level at 100 to 300 mg/kg/day oral gavage observed for 14 days; format: organism-based, Canis lupus familiaris; settings: in vivo, 336 h, dose 100-300 mg/kg/day, time 14 day
[24] = Toxicity in rat assessed as bleeding time by tail cutting assay; settings: in vivo
[25] = Toxicity in beagle dog assessed as abnormality in blood and biochemical index at 100 to 300 mg/kg/day oral gavage observed for 14 days; format: organism-based, Canis lupus familiaris; settings: in vivo, 336 h, dose 100-300 mg/kg/day, time 14 day
[26] = Stability in human plasma assessed as compound remaining measured at 150 mins relative to control; format: ADME, cell-free; settings: read-out: Stability
[27] = Toxicity in beagle dog assessed as increase in liver weight at 100 mg/kg/day oral gavage observed for 14 days; format: organism-based, Canis lupus familiaris; settings: in vivo, 336 h, time 14 day
[28] = Stability in human plasma assessed as compound remaining measured at 45 mins relative to control; format: ADME, cell-free; settings: read-out: Stability
[29] = Toxicity in beagle dog assessed as mydriasis at 100 mg/kg/day oral gavage observed for 14 days; format: organism-based, Canis lupus familiaris; settings: in vivo, 336 h, time 14 day
[30] = Stability in human plasma assessed as compound remaining measured at 120 mins relative to control; format: ADME, cell-free; settings: read-out: Stability
Rattus norvegicus [31] = experiment: Inhibition of thrombosis in anteriovenous bypassed rat at 30 mg/kg relative to control; format: functional
[32] = Toxicity in beagle dog assessed as death at 2000 mg/kg oral gavage observed for 14 days; format: organism-based, Canis lupus familiaris; settings: in vivo, 336 h, time 14 day
[33] = Stability in human plasma assessed as compound remaining measured at 300 mins relative to control; format: ADME, cell-free; settings: read-out: Stability
[34] = Toxicity in beagle dog assessed as emesis at 100 mg/kg/day oral gavage observed for 14 days; format: organism-based, Canis lupus familiaris; settings: in vivo, 336 h, time 14 day
[35] = Toxicity in beagle dog assessed as ALT level at 100 to 300 mg/kg/day oral gavage observed for 14 days; format: organism-based, Canis lupus familiaris; settings: in vivo, 336 h, dose 100-300 mg/kg/day, time 14 day
[36] = Toxicity in beagle dog assessed as dilated pupil at 100 to 300 mg/kg/day oral gavage observed for 14 days; format: organism-based, Canis lupus familiaris; settings: in vivo, 336 h, dose 100-300 mg/kg/day, time 14 day
[37] = Toxicity in beagle dog assessed as abnormality in blood and biochemical index at 2000 mg/kg oral gavage observed for 14 days; format: organism-based, Canis lupus familiaris; settings: in vivo, 336 h, time 14 day
Rattus norvegicus [38] = experiment: Inhibition of thrombosis in anteriovenous bypassed rat at 10 mg/kg relative to control; format: functional
Rattus norvegicus [39] = experiment: Anti-platelet activity against ADP-induced platelet aggregation in rat assessed as inhibition of platelet aggregation at 4 mg/kg relative to control; format: functional
Rattus norvegicus [40] = experiment: Anti-platelet activity against ADP-induced platelet aggregation in rat assessed as inhibition of platelet aggregation at 2 mg/kg relative to control; format: functional
Rattus norvegicus [41] = experiment: Anti-platelet activity against ADP-induced platelet aggregation in rat assessed as inhibition of platelet aggregation at 1 mg/kg relative to control; format: functional
Rattus norvegicus [42] = organism: Rattus norvegicus; experiment: animal or person; settings: Platelet, read-out: INH
Description: Anti-platelet activity against ADP-induced platelet aggregation in rat assessed as inhibition of platelet aggregation at 5 mg/kg relative to control

Rattus norvegicus [43] = organism: Rattus norvegicus; experiment: animal or person; settings: Platelet, read-out: INH; remark: listed apart in the source
Description: Anti-platelet activity against ADP-induced platelet aggregation in rat assessed as inhibition of platelet aggregation at 10 mg/kg relative to control

Rattus norvegicus [44] = organism: Rattus norvegicus; experiment: animal or person; settings: Platelet, read-out: INH; remark: listed apart in the source
Description: Anti-platelet activity against ADP-induced platelet aggregation in rat assessed as inhibition of platelet aggregation at 2.5 mg/kg relative to control

Rattus norvegicus [45] = experiment: Anti-platelet activity against ADP-induced platelet aggregation in rat assessed as inhibition of platelet aggregation at 0.25 mg/kg relative to control; format: functional
Rattus norvegicus [46] = experiment: Anti-platelet activity against ADP-induced platelet aggregation in rat assessed as inhibition of platelet aggregation at 0.5 mg/kg relative to control; format: functional
Rattus norvegicus [47] = experiment: Inhibition of thrombosis in anteriovenous bypassed rat at 0.1 mg/kg relative to control; settings: read-out: INH
[48] = Toxicity in beagle dog assessed as vomiting at 1000 mg/kg oral gavage single dose; format: organism-based, Canis lupus familiaris; settings: in vivo
Rattus norvegicus [49] = experiment: Inhibition of thrombosis in anteriovenous bypassed rat at 0.3 mg/kg relative to control; format: functional
[50] = Toxicity in beagle dog assessed as atrophy of hepatocyte at 1000 mg/kg oral gavage single dose; format: organism-based, Canis lupus familiaris; settings: hepatocytes

SMILES: C/C=C/C=C/C(=O)Oc1cc2c(s1)CCN([C@H](C(=O)OC)c1ccccc1Cl)C2
- remaining at 3 h [1]: 43%
- remaining at 1 h [2]: 76.8%
- selectivity ratio [3]: 0.52
- inhibition in vivo at 1 mg/kg (Rattus norvegicus [4]): 36.5%
- Activity [5]: Non-Toxic
- Activity [6]: Non-Toxic
- ED50 (Rattus norvegicus [7]): 11.8 mg/kg
- remaining at 20 min [8]: 97.1%
- Activity [9]: Toxic
- Activity [10]: Toxic
- remaining at 1.5 h [11]: 63.8%
- inhibition in vivo at 3 mg/kg (Rattus norvegicus [12]): 85.8%
- inhibition in vivo at 0.75 mg/kg (Rattus norvegicus [13]): 7%
- remaining at 6 h [14]: 14.8%
- remaining at 5 min [15]: 93.5%
- inhibition in vivo at 3 mg/kg (Rattus norvegicus [16]): 40.3%
- Activity [17]: Toxic
- inhibition in vivo at 1.5 mg/kg (Rattus norvegicus [18]): 50.8%
- remaining at 4 h [19]: 30%
- remaining at 10 min [20]: 92.8%
- Activity [21]: Non-Toxic
- remaining at 0.5 h [22]: 86.6%
- Activity [23]: Non-Toxic
- ED200 [24]: 0.822 mg/kg
- Activity [25]: Non-Toxic
- remaining at 2.5 h [26]: 46.7%
- Activity [27]: Toxic
- remaining at 0.75 h [28]: 83.9%
- Activity [29]: Toxic
- remaining at 2 h [30]: 62.9%
- inhibition in vivo at 30 mg/kg (Rattus norvegicus [31]): 68.6%
- Activity [32]: Non-Toxic
- remaining at 5 h [33]: 20.9%
- Activity [34]: Toxic
- Activity [35]: Non-Toxic
- Activity [36]: Non-Toxic
- Activity [37]: Non-Toxic
- inhibition in vivo at 10 mg/kg (Rattus norvegicus [38]): 52.1%

SMILES: C=C/C=C/C(=O)Oc1cc2c(s1)CCN([C@H](C(=O)OC)c1ccccc1Cl)C2
- inhibition in vivo at 4 mg/kg (Rattus norvegicus [39]): 100%
- inhibition in vivo at 2 mg/kg (Rattus norvegicus [40]): 97.6%
- inhibition in vivo at 1 mg/kg (Rattus norvegicus [41]): 44%

- remaining at 1 h [2]: 100%
- remaining at 20 min [8]: 100%
- remaining at 1.5 h [11]: 94%
- remaining at 5 min [15]: 106%
- remaining at 10 min [20]: 102%
- remaining at 0.5 h [22]: 104%
- remaining at 0.75 h [28]: 101%
- remaining at 2 h [30]: 96%
SMILES: COC(=O)[C@H](c1ccccc1Cl)N1CCc2sccc2C1 [CLOPIDOGREL]
- inhibition in vivo at 5 mg/kg (Rattus norvegicus [42]): 59.7%
- inhibition in vivo at 30 mg/kg (Rattus norvegicus [31]): 72.6%
- inhibition in vivo at 10 mg/kg (Rattus norvegicus [43]): 90.5%
- inhibition in vivo at 2.5 mg/kg (Rattus norvegicus [44]): 26.5%
- inhibition in vivo at 10 mg/kg (Rattus norvegicus [38]): 41.5%

SMILES: CC(=O)Oc1cc2c(s1)CCN(C(C(=O)C1CC1)c1ccccc1F)C2 (stereo unspecified) [PRASUGREL]
- selectivity ratio [3]: 0.838
- inhibition in vivo at 1 mg/kg (Rattus norvegicus [4]): 35.7%
- ED50 (Rattus norvegicus [7]): 11.8 mg/kg
- inhibition in vivo at 0.25 mg/kg (Rattus norvegicus [45]): 13.3%
- inhibition in vivo at 3 mg/kg (Rattus norvegicus [16]): 70.2%
- inhibition in vivo at 0.5 mg/kg (Rattus norvegicus [46]): 37.8%
- inhibition in vivo at 0.1 mg/kg (Rattus norvegicus [47]): 6%
- ED200 [24]: 0.513 mg/kg
- Activity [48]: Toxic
- inhibition in vivo at 0.3 mg/kg (Rattus norvegicus [49]): 9%
- inhibition in vivo at 1 mg/kg (Rattus norvegicus [41]): 13.3%
- Activity [50]: Toxic
